Converted amounts (≈) assume the structure as drawn.
Assays:
Type in all cases: functional
[1] = tested on: Neisseria meningitidis; test: Antimicrobial activity against Neisseria meningitidis assessed as susceptible isolate by broth microdilution method
[2] = tested on: Neisseria meningitidis; test: Antimicrobial activity against Neisseria meningitidis by broth microdilution method
[3] = tested on: Neisseria meningitidis; test: Antimicrobial activity against Neisseria meningitidis assessed as resistant isolate by broth microdilution method

SMILES	Activity [1] [%]	MIC [2] [µg/mL]	MIC50 [2] [µg/mL]	MIC90 [2] [µg/mL]	Activity [3] [%]
CC[C@H]1OC(=O)[C@H](C)[C@@H](O[C@H]2C[C@@](C)(OC)[C@@H](O)[C@H](C)O2)[C@H](C)[C@@H](O[C@@H]2O[C@H](C)C[C@H](N(C)C)[C@H]2O)[C@](C)(O)C[C@@H](C)CN(C)[C@H](C)[C@@H](O)[C@]1(C)O [AZITHROMYCIN]	100	≤ 0.015	0.06 (≈ 0.0801 µM)	0.12 (≈ 0.16 µM)	
CO/N=C(\C(=O)N[C@@H]1C(=O)N2C(C(=O)O)=C(CSc3nc(=O)c(O)nn3C)CS[C@H]12)c1csc(N)n1 [CEFTRIAXONE]	100		≤ 0.015	≤ 0.015	
O=C(O)c1cn(C2CC2)c2cc(N3CCNCC3)c(F)cc2c1=O [CIPROFLOXACIN]	97.1				1.9
CC[C@H]1OC(=O)[C@H](C)[C@@H](O[C@H]2C[C@@](C)(OC)[C@@H](O)[C@H](C)O2)[C@H](C)[C@@H](O[C@@H]2O[C@H](C)C[C@H](N(C)C)[C@H]2O)[C@](C)(OC)C[C@@H](C)C(=O)[C@H](C)[C@@H](O)[C@]1(C)O [CLARITHROMYCIN]		≤ 0.015	0.03 (≈ 0.0401 µM)	0.12 (≈ 0.16 µM)	
CC[C@H]1OC(=O)[C@H](C)[C@@H](O[C@H]2C[C@@](C)(OC)[C@@H](O)[C@H](C)O2)[C@H](C)[C@@H](O[C@@H]2O[C@H](C)C[C@H](N(C)C)[C@H]2O)[C@](C)(O)C[C@@H](C)C(=O)[C@H](C)[C@@H](O)[C@]1(C)O [ERYTHROMYCIN]		≤ 0.03	0.12 (≈ 0.164 µM)	0.25 (≈ 0.341 µM)	
C[C@H]1COc2c(N3CCN(C)CC3)c(F)cc3c(=O)c(C(=O)O)cn1c23.C[C@H]1COc2c(N3CCN(C)CC3)c(F)cc3c(=O)c(C(=O)O)cn1c23.O [LEVOFLOXACIN]	97.1	≤ 0.008	≤ 0.008	≤ 0.008	1.9
CN(C)c1ccc(O)c2c1C[C@H]1C[C@H]3[C@H](N(C)C)C(O)=C(C(N)=O)C(=O)[C@@]3(O)C(O)=C1C2=O [MINOCYCLINE]	100	≤ 0.015	0.12 (≈ 0.262 µM)	0.25 (≈ 0.546 µM)	0
CC1(C)S[C@@H]2[C@H](NC(=O)Cc3ccccc3)C(=O)N2[C@H]1C(=O)O [PENICILLIN G]	84.5	≤ 0.015	0.03 (≈ 0.0897 µM)	0.12 (≈ 0.359 µM)	0
CO[C@H]1/C=C/O[C@@]2(C)Oc3c(C)c(O)c4c(O)c(c(/C=N/N5CCN(C)CC5)c(O)c4c3C2=O)NC(=O)/C(C)=C\C=C\[C@H](C)[C@H](O)[C@@H](C)[C@@H](O)[C@@H](C)[C@H](OC(C)=O)[C@@H]1C [RIFAMPIN]	100		0.015 (≈ 0.0182 µM)	0.03 (≈ 0.0365 µM)	0
CC[C@H]1OC(=O)[C@@](C)(F)C(=O)[C@H](C)[C@@H](O[C@@H]2O[C@H](C)C[C@H](N(C)C)[C@H]2O)[C@](C)(OC)C[C@@H](C)C(=O)[C@H](C)[C@H]2N(CCCCn3cc(-c4cccc(N)c4)nn3)C(=O)O[C@]12C [SOLITHROMYCIN]		≤ 0.015	≤ 0.015	≤ 0.015	
CC[C@H]1OC(=O)[C@H](C)C(=O)[C@H](C)[C@@H](O[C@@H]2O[C@H](C)C[C@H](N(C)C)[C@H]2O)[C@](C)(OC)C[C@@H](C)C(=O)[C@H](C)[C@H]2N(CCCCn3cnc(-c4cccnc4)c3)C(=O)O[C@]12C [TELITHROMYCIN]		≤ 0.015	≤ 0.015	0.03 (≈ 0.0369 µM)	
